According to ChEMBL document CHEMBL1201862, “PubChem BioAssay data set” (2004):
“And” between values parts separate entries of the source, which are not always exact repeats. Identical values can stand only once.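 How tested: cells in 96-well plates exposed to compound for 48 hours at five concentrations. Abbreviation: GI50, concentration required for 50% inhibition of growth.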 The source made the active and inactive calls. No stated cut-off is given here; in the data, active = GI50 up to about 1.1 µM and inactive = higher.

Experiments:
Assay in all cases: DTP human tumour cell line panel, 48 h
EKVX = tested on: EKVX
NCI-H23 = tested on: NCI-H23
DU-145 = tested on: DU-145
HT-29 = tested on: HT-29
NCI-H522 = tested on: NCI-H522
UACC-257 = tested on: UACC-257
786-0 = tested on: 786-0
UO-31 = tested on: UO-31
CCRF-CEM = tested on: CCRF-CEM
HOP-62 = tested on: HOP-62
Hs-578T = tested on: Hs-578T
T47D = tested on: T47D
K562 = tested on: K562
RPMI-8226 = tested on: RPMI-8226
HCT-116 = tested on: HCT-116
MOLT-4 = tested on: MOLT-4
A498 = tested on: A498

Row | SMILES | GI50 (EKVX) | GI50 (NCI-H23) | GI50 (DU-145) | GI50 (HT-29) | GI50 (NCI-H522) | GI50 (UACC-257) | GI50 (786-0) | GI50 (UO-31) | GI50 (CCRF-CEM) | GI50 (HOP-62) | GI50 (Hs-578T) | GI50 (T47D) | GI50 (K562) | GI50 (RPMI-8226) | GI50 (HCT-116) | GI50 (MOLT-4) | GI50 (A498)
1 | COc1cc(OC)c(C2c3cc4c(cc3OC(N3CCCC3)C2C)OCO4)c(OC)c1 (centres undefined) | 22.3 µM (inactive) | 14.8 µM (inactive) | 13 µM (inactive) | 10.3 µM (inactive) | 15.3 µM (inactive) | 19.2 µM (inactive) | 15.9 µM (inactive) | 7.67 µM (inactive) | 15.2 µM (inactive) | 16.5 µM (inactive) | 3.77 µM (inactive) | 10.5 µM (inactive) | 19.7 µM (inactive) | 16.4 µM (inactive) | 3.98 µM (inactive) | 10.9 µM (inactive) | –
2 | CC1=CC(=O)CC2(C)CCC(C(C)CC(=O)CC(C)C)CC12OO (centres undefined) | 17.9 µM (inactive) and 19.9 µM (inactive) | 16.5 µM (inactive) and 19.9 µM (inactive) | 18 µM (inactive) and 16 µM (inactive) | 17 µM (inactive) and 20.7 µM (inactive) | – | 17.7 µM (inactive) and 17.3 µM (inactive) | 10.1 µM (inactive) and 13.1 µM (inactive) | 19.9 µM (inactive) and 16.2 µM (inactive) | 20.7 µM (inactive) and 19.6 µM (inactive) | – | 46.9 µM (inactive) and 28.4 µM (inactive) | – | 10.9 µM (inactive) and 5.53 µM (inactive) | 16.6 µM (inactive) and 12.5 µM (inactive) | 16.2 µM (inactive) and 16.1 µM (inactive) | 14.8 µM (inactive) and 15.8 µM (inactive) | 22.4 µM (inactive) and 16.9 µM (inactive)
3 | CC1=CC(O)(c2ccccc2)C(N2CCOCC2)N1O (centres undefined) | > 100 µM (inactive) | > 100 µM (inactive) | – | > 100 µM (inactive) | > 100 µM (inactive) | > 100 µM (inactive) | > 100 µM (inactive) | > 100 µM (inactive) | 91.4 µM (inactive) | > 100 µM (inactive) | > 100 µM (inactive) | > 100 µM (inactive) | > 100 µM (inactive) | > 100 µM (inactive) | > 100 µM (inactive) | > 100 µM (inactive) | –
4 | COC(=O)C1=C(O)CCCC(C2CCCCC(=O)C2C(=O)OC)=C1 (centres undefined) | 67.3 µM (inactive) | 70.3 µM (inactive) | 29.9 µM (inactive) | > 100 µM (inactive) | – | 52.1 µM (inactive) | 37.8 µM (inactive) | > 100 µM (inactive) | 20.8 µM (inactive) | – | – | 39.4 µM (inactive) | 64.3 µM (inactive) | 56.1 µM (inactive) | 36.1 µM (inactive) | 31.3 µM (inactive) | 18.4 µM (inactive)
5 | CC1(C)OC2OC(C(COS(=O)(=O)C(F)(F)F)N=[N+]=[N-])C(OC(=O)c3ccccc3)C2O1 (centres undefined) | > 100 µM (inactive) | > 100 µM (inactive) | > 100 µM (inactive) | > 100 µM (inactive) | – | > 100 µM (inactive) | > 100 µM (inactive) | > 100 µM (inactive) | > 100 µM (inactive) | > 100 µM (inactive) | > 100 µM (inactive) | – | > 100 µM (inactive) | – | > 100 µM (inactive) | > 100 µM (inactive) | > 100 µM (inactive)
6 | CCCCCC(C(O)C#N)C(O)(C(F)(F)F)C(F)(F)F (centres undefined) | – | > 10 µM (inactive) | > 10 µM (inactive) | > 10 µM (inactive) | > 10 µM (inactive) | > 10 µM (inactive) | > 10 µM (inactive) | – | > 10 µM (inactive) | > 10 µM (inactive) | > 10 µM (inactive) | > 10 µM (inactive) | > 10 µM (inactive) | > 10 µM (inactive) | > 10 µM (inactive) | > 10 µM (inactive) | –
7 | COc1ccc2nc3c4c(nccc4c2c1)-c1ncccc1C3=O | 0.132 µM (active) | 0.0887 µM (active) | 0.00927 µM (active) | 0.499 µM (active) | – | 0.0834 µM (active) | 0.0246 µM (active) | 0.135 µM (active) | 0.818 µM (active) | 0.0193 µM (active) | – | 0.703 µM (active) | 0.016 µM (active) | 0.0652 µM (active) | 0.0124 µM (active) | 0.847 µM (active) | 0.0916 µM (active)
8 | CSCCC(NCc1c(O)ccc2ccc(=O)oc12)C(=O)O (centres undefined) | > 100 µM (inactive) | > 100 µM (inactive) | > 100 µM (inactive) | > 100 µM (inactive) | > 100 µM (inactive) | > 100 µM (inactive) | > 100 µM (inactive) | > 100 µM (inactive) | > 100 µM (inactive) | > 100 µM (inactive) | 4.78 µM (inactive) | > 100 µM (inactive) | > 100 µM (inactive) | > 100 µM (inactive) | > 100 µM (inactive) | > 100 µM (inactive) | –
9 | Cc1ccc(-c2ccc(Nc3c4ccccc4nc4ccccc34)cc2)cn1 | 6.64 µM (inactive) | 4.66 µM (inactive) | 3.77 µM (inactive) | 2.13 µM (inactive) | 2.83 µM (inactive) | 7.13 µM (inactive) | 1.66 µM (inactive) | 3.13 µM (inactive) | – | 1.82 µM (inactive) | 5 µM (inactive) | 2.17 µM (inactive) | 3.66 µM (inactive) | 1.92 µM (inactive) | 2.91 µM (inactive) | 1.03 µM (active) | –
10 | CCOc1ccc(NC(=S)N/C=C(/C(C)=O)C(=O)Nc2ccccc2C)cc1 | > 100 µM (inactive) | > 100 µM (inactive) | > 100 µM (inactive) | > 100 µM (inactive) | > 100 µM (inactive) | > 100 µM (inactive) | > 100 µM (inactive) | > 100 µM (inactive) | – | > 100 µM (inactive) | > 100 µM (inactive) | > 100 µM (inactive) | > 100 µM (inactive) | 7.35 µM (inactive) | > 100 µM (inactive) | > 100 µM (inactive) | –
11 | CN(C)c1ccc(/C=C/C(=O)CC(=O)/C=C/c2ccc(N(C)C)cc2)cc1 | > 100 µM (inactive) | – | > 100 µM (inactive) | > 100 µM (inactive) | > 100 µM (inactive) | – | > 100 µM (inactive) | > 100 µM (inactive) | > 100 µM (inactive) | > 100 µM (inactive) | > 100 µM (inactive) | > 100 µM (inactive) | > 100 µM (inactive) | > 100 µM (inactive) | 57.3 µM (inactive) | > 100 µM (inactive) | –
12 | O=C1NN=C2C=C(c3ccc(Cl)cc3)CC(c3cccc(Br)c3)C12 (centres undefined) | 47.5 µM (inactive) | 87.3 µM (inactive) | 41.8 µM (inactive) | > 100 µM (inactive) | 38.4 µM (inactive) | 22.4 µM (inactive) | > 100 µM (inactive) | 42.8 µM (inactive) | 22 µM (inactive) | > 100 µM (inactive) | 19.1 µM (inactive) | 22.1 µM (inactive) | 32.9 µM (inactive) | 26.1 µM (inactive) | 64.9 µM (inactive) | 43.9 µM (inactive) | –
13 | CN1CCN(c2ccc3nc(C4=C(O)C(=O)[C@@H]5C(=C4O)N=C(CO)N5C)[nH]c3n2)CC1 | > 100 µM (inactive) | > 100 µM (inactive) | > 100 µM (inactive) | > 100 µM (inactive) | 64.3 µM (inactive) | > 100 µM (inactive) | > 100 µM (inactive) | > 100 µM (inactive) | 97.5 µM (inactive) | > 100 µM (inactive) | > 100 µM (inactive) | 17.7 µM (inactive) | 24 µM (inactive) | > 100 µM (inactive) | 94.2 µM (inactive) | > 100 µM (inactive) | –
14 | COC(=O)CC1(O)C(C=C(C)C)C(C(=O)OC)C(=O)C(C(=O)OC)C1C(=O)OC (centres undefined) | > 100 µM (inactive) | > 100 µM (inactive) | > 100 µM (inactive) | > 100 µM (inactive) | > 100 µM (inactive) | > 100 µM (inactive) | > 100 µM (inactive) | > 100 µM (inactive) | > 100 µM (inactive) | > 100 µM (inactive) | > 100 µM (inactive) | – | > 100 µM (inactive) | > 100 µM (inactive) | > 100 µM (inactive) | > 100 µM (inactive) | > 100 µM (inactive)
15 | Cc1ccc(C(C2C(=O)N(C)C(=O)N(C)C2=O)C(F)(F)C(=O)N(C)C)cc1 (centres undefined) | > 100 µM (inactive) | > 100 µM (inactive) | > 100 µM (inactive) | – | – | > 100 µM (inactive) | > 100 µM (inactive) | > 100 µM (inactive) | > 100 µM (inactive) | > 100 µM (inactive) | – | > 100 µM (inactive) | – | > 100 µM (inactive) | > 100 µM (inactive) | – | > 100 µM (inactive)
16 | CC(C)(CN1CCCCC1)C(=O)CC(SCCS(=O)(=O)O)c1ccc(Cl)c(Cl)c1 (centres undefined) | 6.59 µM (inactive) | 3.72 µM (inactive) | 11.4 µM (inactive) | 3.08 µM (inactive) | 3.19 µM (inactive) | 5.94 µM (inactive) | 1.86 µM (inactive) | 4.91 µM (inactive) | 2.07 µM (inactive) | 6.47 µM (inactive) | 2.8 µM (inactive) | – | 2.42 µM (inactive) | 4.01 µM (inactive) | 2.59 µM (inactive) | 3.61 µM (inactive) | 3.56 µM (inactive)
17 | c1cc2cc3c4c5c(cc6ccc7cc8cc9c%10c8c8c7c6c5c8c5c%10c(c1C9N1CCOCCOCCOCCOCCOCC1)c2c45)C3 (centres undefined) | > 100 µM (inactive) | > 100 µM (inactive) | > 100 µM (inactive) | > 100 µM (inactive) | > 100 µM (inactive) | > 100 µM (inactive) | > 100 µM (inactive) | > 100 µM (inactive) | > 100 µM (inactive) | > 100 µM (inactive) | > 100 µM (inactive) | > 100 µM (inactive) | > 100 µM (inactive) | > 100 µM (inactive) | > 100 µM (inactive) | > 100 µM (inactive) | –
